Reference: US9441024B2, “Glycosylated polypeptide and drug composition containing said polypeptide” (priority 2011, dated 2016)

Experiments:
[1] = system: growth hormone (GH) production; experiment: GH production suppression test with rats; assay type: in vivo, rat; conditions: for GH: rat plasma GH concentration; for GH production suppression activity (in words) / GH concentration in plasma: rat; for GH production suppression activity (in words): s.c., 10 or 100 nmol/kg; for GH concentration in plasma: 1 hour before GRF, blood 5 minutes after GRF, vehicle 861
Description: As shown in Example 69, the glycosylated polypeptide of the present invention had affinity towards each receptor of SSTR. […] Increase of GH production amount into the blood is thought to cause proliferation or differentiation of cells and activation or suppression of the biosynthetic system in various organs via the paracrine effect of GH, and thereby influence biological reactions. Somatostatin released from the hypothalamus suppresses GH secretion from the anterior pituitary gland into the blood.
. Moreover, GRF (GH releasing hormone, Growth hormone releasing factor) was used as the GH release enhancer. GRF was prepared by dissolving GRF injectable solution (GRF Sumitomo 50 for injection, Lot. 2006C, from Dainippon Sumitomo Pharma Co., Ltd.) in 1 mL of water for injection (Lot. 09H18C, from Fuso Pharmaceutical Industries, Ltd.), and then diluting to 25-folds with saline to obtain 2 μg/mL. As heparin employed as the anticoagulant when collecting blood, Japanese Pharmacopeia heparin sodium injectable solution (Lot. B084, from Mochida Pharmaceutical Co., Ltd.) was used directly as stock solution.
[…]. As the control group, saline without glycosylated polypeptide was similarly administered (vehicle group). Then, i.e. between 5-6 minutes after the administration of the glycosylated form, pentobarbital sodium (somnopentyl, Lot. 0608101, from Kyoritsuseiyaku Corporation) was intraperitoneally administered as a general anesthetic with a glass syringe and an injection needle to give 50 mg/kg. […] […].
. […] By multiplying the results obtained and the dilution ratio, the GH concentration was calculated.

SSTR1-SSTR5 = experiment: Competitive binding assay, statements over all receptors SSTR1-SSTR5; design: species or system Human; conditions: range over SSTR1-SSTR5, Example 69-1
Description: Competitive binding assay was performed with the method below to calculate receptor binding affinity.
Competitive binding assay was consigned to Ricerca Biosciences, and experiment and data analysis was performed. […] The test substance was used at a concentration of 0.01 nM, 0.1 nM, 1 nM, 10 nM, 100 nM, or 1000 nM, and mixed with the membrane sample into a reaction solution. The incubation condition of the reaction solution was at 25° C. for 4 hours for SSTR2 and at 25° C. for 2 hours for SSTR1, SSTR3, SSTR4, and SSTR5.

[2] = system: rat gastrointestinal obstruction model; experiment: Gastrointestinal obstruction model: intestinal fluid weight of the jejunum; assay type: in vivo; conditions: for Intestinal fluid weight: Table 9, rat, 40 μM solution 1 mL/kg s.c. 18 h after ligation, 1 h after administration
Description: Anesthesia was introduced with inhalation of 2% isoflurane and laughing gas:oxygen=7:3, and this was maintained throughout the surgery. A median incision was made in the abdomen, and the jejunum at about 10 cm from the musculus suspensorius duodeni was ligated with a surgical suture. Then, the incision site was promptly sutured, and the rats were fasted until compound administration. In the sham treatment group, ligation of the jejunum was not performed, but the treatment of suturing the incision site after a median incision was made in the abdomen was performed.
(§1) Eighteen hours after the gastrointestinal obstruction surgery, this was subcutaneously administered into the dorsal cervix at a dosage of 1 mL/kg with a glass syringe and a 25 G injection needle (all from Terumo Corporation). As the vehicle group, saline without glycosylated polypeptide was similarly administered.
One hour after compound administration, a median incision was made in the abdomen under inhalation anesthesia, and 1.5 mL of blood was collected from the abdominal vena cava. Then, the ligated jejunum on the musculus suspensorius duodeni side was resected. The fluid and blood on the jejunum surface were removed with a paper towel, nerves, blood vessels, and fat attached to the jejunum was removed, this was cut into 6 cm lengths, and wet weight was measured. This was then dried at 36 degrees for 24 hours, and dry weight was measured. The intestinal fluid weight (mg) was calculated by wet weight-dry weight.

[3] = system: rat gastrointestinal obstruction model; experiment: Gastrointestinal obstruction model: blood parameters (amylase, LDH, CPK); assay type: in vivo
Description: This experimental line was carried out as a test line to evaluate the promotion of intestinal fluid absorption or the secretory suppressing action, using the change in the intestinal fluid weight in the jejunum after bowel obstruction as an indicator. Moreover, blood parameters of deviation enzymes amylase (pancreas), lactate dehydrogenase (LDH, liver), and creatine phosphokinase (CPK, skeletal muscle, cardiac muscle etc.) were measured as indicators of tissue disorders.
The present test was consigned to Mitsubishi Chemical Medience Corporation and carried out. […] Anesthesia was introduced with inhalation of 2% isoflurane and laughing gas:oxygen=7:3, and this was maintained throughout the surgery. A median incision was made in the abdomen, and the jejunum at about 10 cm from the musculus suspensorius duodeni was ligated with a surgical suture. Then, the incision site was promptly sutured, and the rats were fasted until compound administration. In the sham treatment group, ligation of the jejunum was not performed, but the treatment of suturing the incision site after a median incision was made in the abdomen was performed.
as §1
One hour after compound administration, a median incision was made in the abdomen under inhalation anesthesia, and 1.5 mL of blood was collected from the abdominal vena cava.
The measuring methods employed were BG5B, UV-rate, and JSCC methods, respectively.

[4] = Table 10, blood 1 h after s.c. administration
[5] = blood collected one hour after compound administration, rat gastrointestinal obstruction model

R13C(disialo)-SRIF28 [Example 5]
GH ([1]; dose 10 nmol/kg): 136 ng/mL | GH production suppression activity (in words) [1]: showed GH production suppression activity

S1C(asialo)-SRIF28 [Example 27]
GH ([1]; dose 1 nmol/kg): 879 ng/mL | GH ([1]; dose 3 nmol/kg): 515 ng/mL | GH ([1]; dose 10 nmol/kg): 146 ng/mL

S1C(disialo(aminoethylamide))-SRIF28 [Example 59]
GH ([1]; dose 10 nmol/kg): 314 ng/mL

S1C(disialo)-D-Trp22-SRIF28 [Example 15]
GH ([1]; dose 0.3 nmol/kg): 986 ng/mL | GH ([1]; dose 1 nmol/kg): 335 ng/mL | GH ([1]; dose 3 nmol/kg): 50 ng/mL | GH ([1]; dose 10 nmol/kg): 6 ng/mL | GH ([1]; dose 30 nmol/kg): 2 ng/mL

S1-2C(asialo)-SRIF28 [Example 28]
GH ([1]; dose 3 nmol/kg): 997 ng/mL | GH ([1]; dose 10 nmol/kg): 175 ng/mL | Affinity towards SSTR1-SSTR5, times higher than S1C(disialo)-SRIF28 (SSTR1-SSTR5): 1.7-2.9 folds | Intestinal fluid weight [2]: 566 ± 34 mg | Intestinal fluid weight compared to the vehicle (in words) ([2]; text on Table 9): increase in the intestinal fluid weight compared to the vehicle

E12C(disialo)-SRIF28 [Example 4]
GH ([1]; dose 10 nmol/kg): 10 ng/mL

29C(disialo)-SRIF28 [Example 13]
GH concentration in plasma ([1]; subcutaneous 10 nmol/kg): 497 ng/mL | GH concentration in plasma ([1]; subcutaneous 100 nmol/kg): 88.5 ng/mL

N19C(disialo)-SRIF28 [Example 10]
GH concentration in plasma ([1]; subcutaneous 10 nmol/kg): 563 ng/mL | GH concentration in plasma ([1]; subcutaneous 100 nmol/kg): 1.5 ng/mL

N5C(disialo)-SRIF28 [Example 2]
GH ([1]; dose 1 nmol/kg): 969 ng/mL | GH ([1]; dose 10 nmol/kg): 12 ng/mL

A9C(disialo)-SRIF28 [Example 3]
GH ([1]; dose 1 nmol/kg): 577 ng/mL | GH ([1]; dose 10 nmol/kg): 20 ng/mL

C[C@@H](O)[C@@H]1NC(=O)[C@H](CCCCN)NC(=O)[C@@H](Cc2c[nH]c3ccccc23)NC(=O)[C@H](Cc2ccccc2)NC(=O)[C@@H](NC(=O)[C@H](N)Cc2ccccc2)CSSC[C@@H](C(=O)N[C@H](CO)[C@@H](C)O)NC1=O [Octreotide]
Amylase activity compared to the vehicle (in words) [3, 4]: equivalent to the vehicle | LDH activity compared to the vehicle (in words) [3, 4]: low value compared to the vehicle | Amylase (IU/L) [3, 5]: 1732 ± 774 IU/L | CPK (IU/L) [3, 5]: 472 ± 215 IU/L | LDH (IU/L) [3, 5]: 269 ± 141 IU/L | Intestinal fluid weight [2]: 693 ± 48 mg

S1C(disialo(amide))-SRIF28 [Example 60]
GH ([1]; dose 10 nmol/kg): 14 ng/mL

S1C(disialo(Bn))-SRIF28 [Example 61]
GH ([1]; dose 10 nmol/kg): 49 ng/mL

K14C(disialo)-SRIF28 [Example 6]
GH ([1]; dose 10 nmol/kg): 55 ng/mL | GH production suppression activity (in words) [1]: showed GH production suppression activity

S1C(monosialo)-SRIF28 [Example 26]
GH ([1]; dose 10 nmol/kg): 47 ng/mL
